Where two headings read alike, the source gives them in different places.

The experiment addresses human σ1 receptor (Homo sapiens, UniProt Q99720). Briefly: Human σ1 receptor radioligand assay ([3H](+)-pentazocine, transfected HEK-293 membranes). The class given is binding. Also noted: μ and σ1 dual binding: key to the marks not given beside the values. The settings on record: one class symbol for both Ki-σ1 (human σ1 receptor, A1) and Ki-μ (human μ-opioid receptor, A2). An outline of the steps:
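Membranes from HEK-293 cells transfected with human σ1 receptor (7 μg) incubated with 5 nM [3H](+)-pentazocine in 50 mM Tris-HCl pH 8, 120 min at 37° C. Non-specific binding defined with 10 μM haloperidol. Bound radioligand separated by filtration, washed with ice-cold 10 mM Tris-HCl pH 7.4, and counted by scintillation.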

[1] abbreviates: read-out: μ and σ1 dual binding.

Sequence of human σ1 receptor (Q99720 whole entry): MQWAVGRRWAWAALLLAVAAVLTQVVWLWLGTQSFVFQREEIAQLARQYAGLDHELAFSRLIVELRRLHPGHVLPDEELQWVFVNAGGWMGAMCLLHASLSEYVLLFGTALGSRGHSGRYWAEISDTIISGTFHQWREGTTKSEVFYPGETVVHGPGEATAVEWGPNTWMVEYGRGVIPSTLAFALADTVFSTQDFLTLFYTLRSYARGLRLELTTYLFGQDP

Regarding `CN(Cc1ccccc1)[C@H]1CCN(C2(C(=O)c3ccccn3)CCOC(C)(C)C2)C1` (stereo partly drawn) [Example 138, (4-((S)-3-(benzyl(methyl)amino)pyrrolidin-1-yl)-2,2-dimethyltetrahydro-2H-pyran-4-yl)(pyridin-2-yl)methanone], the Ki (μ and σ1 dual binding) was more than 500 nM.

For `CC[C@]1(N2CCN(Cc3ccccc3)CC2)CCO[C@@H](C)C1` [Example 163, 1-benzyl-4-((2S,4S)-4-ethyl-2-methyltetrahydro-2H-pyran-4-yl)piperazine], the “μ and σ1 dual binding” value is listed as “++”.

Where the note is “μ and σ1 dual binding”, `CC(C)OCCCN1CCN(C2(C(=O)c3ccccn3)CCOC(C)(C)C2)CC1` (stereo not drawn) [Example 71, (4-(4-(3-isopropoxypropyl)piperazin-1-yl)-2,2-dimethyltetrahydro-2H-pyran-4-yl)(pyridin-2-yl)methanone] returned a Ki of less than 500 nM.

With `C[C@H]1C[C@@](C(=O)c2ccccn2)(N2CCN(Cc3ccccc3)CC2)CCO1` [Example 155, ((2S,4S)-4-(4-benzylpiperazin-1-yl)-2-methyltetrahydro-2H-pyran-4-yl)(pyridin-2-yl)methanone], the “μ and σ1 dual binding” value is “++”.

With `CC(C)CCN(C)[C@@H]1CCN([C@@]2(C(=O)c3ccccn3)CCOC(C)(C)C2)C1` [Example 148, ((S)-4-((R)-3-(isopentyl(methyl)amino)pyrrolidin-1-yl)-2,2-dimethyltetrahydro-2H-pyran-4-yl)(pyridin-2-yl)methanone], the Ki (μ and σ1 dual binding) was less than 500 nM.

As to `CC(C)OCCN1CCC([C@@]2(C(=O)c3ccccn3)CCOC(C)(C)C2)CC1` [Example 245, (R)-(4-(1-(2-isopropoxyethyl)piperidin-4-yl)-2,2-dimethyltetrahydro-2H-pyran-4-yl)(pyridin-2-yl)methanone], the “μ and σ1 dual binding” value is “++”.

Regarding `C[C@@H]1C[C@@](C(=O)c2ccccn2)(N2CCN(CCc3ccccc3)CC2)CCO1` [Example 26], the Ki under setting [1] is less than 500 nM.

Take `N#Cc1cccc(CN2CCN(C3(c4ccccc4)CCOC4(CCCC4)C3)CC2)c1` (stereo not drawn) [Example 121, 3-((4-(9-phenyl-6-oxaspiro[4.5]decan-9-yl)piperazin-1-yl)methyl)benzonitrile]: the “μ and σ1 dual binding” value is on record as “++”.

For `O=C(c1ccccn1)C1(N2CCN(Cc3ccc(F)c(F)c3)CC2)CCOCC1` [Example 197, (4-(4-(3,4-difluorobenzyl)piperazin-1-yl)tetrahydro-2H-pyran-4-yl)(pyridin-2-yl)methanone], the Ki under setting [1] was more than 500 nM.

In the case of `CC(C)OCCN(C)[C@H]1CCN([C@]2(C(=O)c3ccccn3)CCOC(C)(C)C2)C1` [Example 146, ((R)-4-((S)-3-((2-isopropoxyethyl)(methyl)amino)pyrrolidin-1-yl)-2,2-dimethyltetrahydro-2H-pyran-4-yl)(pyridin-2-yl)methanone], the “μ and σ1 dual binding” value is reported as “++”.

`CCC1(N2CCN(CCOC(C)C)CC2)CCOC(C)(C)C1` (stereo not drawn) [Example 39, 1-(4-ethyl-2,2-dimethyltetrahydro-2H-pyran-4-yl)-4-(2-isopropoxyethyl)piperazine]: the “μ and σ1 dual binding” value was “++”.

With `CC(C)C1(N2CCN(CCc3ccccc3)CC2)CCOC(C)(C)C1` (stereo not drawn) [Example 42, 1-(4-isopropyl-2,2-dimethyltetrahydro-2H-pyran-4-yl)-4-phenethylpiperazine], the Ki (μ and σ1 dual binding) was less than 100 nM.

As for `CC(C)OCCN1CCN([C@]2(C(=O)c3ccccn3)CCOC(C)(C)C2)CC1` [Example 135, (R)-(4-(4-(2-isopropoxyethyl)piperazin-1-yl)-2,2-dimethyltetrahydro-2H-pyran-4-yl)(pyridin-2-yl)methanone], the Ki under setting [1] was less than 500 nM.

`N#Cc1ccc(CN2CCN(C3(C4CC4)CCOCC3)CC2)cc1` [Example 191, 4-((4-(4-cyclopropyltetrahydro-2H-pyran-4-yl)piperazin-1-yl)methyl)benzonitrile]: the Ki under setting [1] is more than 500 nM.

Turning to `CN(Cc1ccccc1)[C@@H]1CCN([C@]2(C(=O)c3ccccn3)CCOC(C)(C)C2)C1` [Example 142], the Ki (μ and σ1 dual binding) is less than 100 nM.

Regarding `CC(C)OCCN1CCN([C@]2(C(=O)c3ccccn3)CCOC(C)(C)C2)CC1` [Example 139, (R)-(4-(4-(2-isopropoxyethyl)piperazin-1-yl)-2,2-dimethyltetrahydro-2H-pyran-4-yl)(pyridin-2-yl)methanone], the Ki under setting [1] was more than 500 nM.

Take `CC(C)CN1CCC(C2(C(=O)c3ccccn3)CCOC(C)(C)C2)CC1` (stereo not drawn) [Example 102, (4-(1-isobutylpiperidin-4-yl)-2,2-dimethyltetrahydro-2H-pyran-4-yl)(pyridin-2-yl)methanone]: the “μ and σ1 dual binding” value is reported as “++”.

With `CCC1(N2CCN(CCc3ccccc3)CC2)CCOC(C)(C)C1` (stereo not drawn) [Example 52, 1-(4-ethyl-2,2-dimethyltetrahydro-2H-pyran-4-yl)-4-phenethylpiperazine], under setting [1], the Ki is less than 500 nM.

On to `CCC1(N2CCN(Cc3ccccc3)CC2)CCOC(C)(C)C1` (stereo not drawn) [Example 38, 1-benzyl-4-(4-ethyl-2,2-dimethyltetrahydro-2H-pyran-4-yl)piperazine], for which the “μ and σ1 dual binding” value is reported as “++”.

Consider `CC1(C)CC(C(=O)c2ccccn2)(N2CCCN(Cc3ccccc3)CC2)CCO1` (stereo not drawn) [Example 24, (4-(4-benzyl-1,4-diazepan-1-yl)-2,2-dimethyltetrahydro-2H-pyran-4-yl)(pyridin-2-yl)methanone], for which the Ki (μ and σ1 dual binding) was less than 500 nM.

With `CCC1(N2CCN(CCc3ccncc3)CC2)CCOC(C)(C)C1` (stereo not drawn) [Example 82, 1-(4-ethyl-2,2-dimethyltetrahydro-2H-pyran-4-yl)-4-(2-(pyridin-4-yl)ethyl)piperazine], the “μ and σ1 dual binding” value is reported as “++”.

As for `N#Cc1cc(CN2CCN(C3(C(=O)c4ccccn4)CCOCC3)CC2)ccc1F` [Example 188, 2-fluoro-5-((4-(4-picolinoyltetrahydro-2H-pyran-4-yl)piperazin-1-yl)methyl)benzonitrile], the Ki under setting [1] is more than 500 nM.

Consider `CC1(C)CC(c2ccccc2)(N2CCN(Cc3ccccc3)CC2)CCO1` (stereo not drawn) [Example 35, 1-benzyl-4-(2,2-dimethyl-4-phenyltetrahydro-2H-pyran-4-yl)piperazine], for which the Ki (μ and σ1 dual binding) was less than 500 nM.

Turning to `CC(C)CCN1CCC(C2(C(=O)c3ccccn3)CCOC(C)(C)C2)CC1` (stereo not drawn) [Example 76, (4-(1-isopentylpiperidin-4-yl)-2,2-dimethyltetrahydro-2H-pyran-4-yl)(pyridin-2-yl)methanone], under “μ and σ1 dual binding”, the Ki is less than 100 nM.

Turning to `CC(C)CCN1CCC([C@@]2(C(=O)c3ccccn3)CCO[C@@H](C)C2)CC1` [Example 171], the “μ and σ1 dual binding” value was “++”.

As to `CCC1(N2CCN(Cc3ccc(C#N)cc3)CC2)CCOCC1` [Example 174, 4-((4-(4-ethyltetrahydro-2H-pyran-4-yl)piperazin-1-yl)methyl)benzonitrile], the “μ and σ1 dual binding” value is “++”.

For `CC1(C)CC(C(=O)c2ccccn2)(N2CCN(Cc3ccncc3)CC2)CCO1` (stereo not drawn) [Example 59, (2,2-dimethyl-4-(4-(pyridin-4-ylmethyl)piperazin-1-yl)tetrahydro-2H-pyran-4-yl)(pyridin-2-yl)methanone], under setting [1], the Ki was more than 500 nM.

For the compound `CC(C)CN1CCN(C2(c3ccccc3)CCOC3(CCCC3)C2)CC1` (stereo not drawn) [Example 33, 1-isobutyl-4-(9-phenyl-6-oxaspiro[4.5]decan-9-yl)piperazine], the Ki (μ and σ1 dual binding) was less than 500 nM.

With `CCC1(C2CCN(CCc3ccccc3)CC2)CCOC(C)(C)C1` (stereo not drawn) [Example 173, 4-(4-ethyl-2,2-dimethyltetrahydro-2H-pyran-4-yl)-1-phenethylpiperidine], the “μ and σ1 dual binding” value was “++”.

On to `CC[C@@]1(N2CCN(CCc3ccccc3)CC2)CCO[C@@H](C)C1` (stereo in doubt) [Example 47, 1-(4-ethyl-2-methyltetrahydro-2H-pyran-4-yl)-4-phenethylpiperazine], for which the “μ and σ1 dual binding” value is “++”.

For the compound `CC(C)CCN1CCN([C@]2(C(=O)c3ccccn3)CCOC(C)(C)C2)CC1` [Example 133, (R)-(4-(4-isopentylpiperazin-1-yl)-2,2-dimethyltetrahydro-2H-pyran-4-yl)(pyridin-2-yl)methanone], under “μ and σ1 dual binding”, the Ki was less than 100 nM.

Regarding `CC1(C)CC(c2ccccn2)(C2CCN(Cc3ccccc3)CC2)CCO1` (stereo not drawn) [Example 125, 2-(4-(1-benzylpiperidin-4-yl)-2,2-dimethyltetrahydro-2H-pyran-4-yl)pyridine], the Ki (μ and σ1 dual binding) is more than 500 nM.

For the compound `CC(C)CCN1CCN([C@@]2(C(=O)c3ccccn3)CCO[C@@H](C)C2)CC1` [Example 247, ((2S,4S)-4-(4-isopentylpiperazin-1-yl)-2-methyltetrahydro-2H-pyran-4-yl)(pyridin-2-yl)methanone], the “μ and σ1 dual binding” value is “++”.

In turn, `CCC1(N2CCN(CCc3cccc(F)c3)CC2)CCOC(C)(C)C1` (stereo not drawn) [Example 93, 1-(4-ethyl-2,2-dimethyltetrahydro-2H-pyran-4-yl)-4-(3-fluorophenethyl)piperazine] registered a Ki (μ and σ1 dual binding) of less than 500 nM.

As to `CC(C)OCCN1CCN([C@]2(C(=O)c3ccccn3)CCO[C@@H](C)C2)CC1` [Example 96], the Ki under setting [1] is more than 500 nM.

For the compound `C[C@@H]1C[C@@](C(=O)c2ccccn2)(N2CCN(Cc3ccccc3)CC2)CCO1` [Example 25], the Ki under setting [1] was more than 500 nM.

Under “μ and σ1 dual binding”, `CC1(C)CC(C2CC2)(N2CCN(CCc3ccccc3)CC2)CCO1` (stereo not drawn) [Example 44, 1-(4-cyclopropyl-2,2-dimethyltetrahydro-2H-pyran-4-yl)-4-phenethylpiperazine] showed a Ki of less than 500 nM.

Consider `CC1(C)CC(C(=O)c2ccccn2)(N2CCN(CCc3ncccc3F)CC2)CCO1` (stereo not drawn) [Example 55, (4-(4-(2-(3-fluoropyridin-2-yl)ethyl)piperazin-1-yl)-2,2-dimethyltetrahydro-2H-pyran-4-yl)(pyridin-2-yl)methanone], for which the “μ and σ1 dual binding” value is “++”.

In turn, `CC(C)COCCN1CCN(C2(C(=O)c3ccccn3)CCOC(C)(C)C2)CC1` (stereo not drawn) [Example 66, (4-(4-(2-isobutoxyethyl)piperazin-1-yl)-2,2-dimethyltetrahydro-2H-pyran-4-yl)(pyridin-2-yl)methanone] showed a Ki (μ and σ1 dual binding) of less than 500 nM.
